Laboratory results reported in PubChem BioAssay AID248 (DTP/NCI, 2004).
Values joined by “and” are separate entries in the source; they are usually repeats but may differ in a detail not shown here. Identical values can stand only once. Toxic doses and inconclusive results are not listed.

System: L1210 leukemia ip in BDF1 mice, survival T/C
Assay: NCI In Vivo Anticancer Drug Screen. Data for tumor model L1210 Leukemia (intraperitoneal) in B6D2F1 (BDF1) mice
Conditions: endpoint: mean survival time, higher = longer survival
In short: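 Ratio derived from survival: compound-dosed mice over vehicle-dosed mice, all bearing a transplantable tumor.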

[1] = dose: 100.0 mg/kg/injection, schedule: Q01DX001 (ip), vehicle: saline
[2] = dose: 100.0 mg/kg/injection, schedule: Q01DX009 (ip), vehicle: Klucel (hydroxypropylcellulose) (HPC)
[3] = dose: 100.0 mg/kg/injection, schedule: Q04DX003 (ip), vehicle: Klucel (hydroxypropylcellulose) (HPC)
[4] = dose: 200.0 mg/kg/injection, schedule: Q04DX003 (ip), vehicle: Klucel (hydroxypropylcellulose) (HPC)
[5] = dose: 50.0 mg/kg/injection, schedule: Q01DX009 (ip), vehicle: saline
[6] = dose: 50.0 mg/kg/injection, schedule: Q01DX009 (ip), vehicle: saline with Tween-80
[7] = dose: 100.0 mg/kg/injection, schedule: Q01DX009 (ip), vehicle: saline with Tween-80
[8] = dose: 200.0 mg/kg/injection, schedule: Q01DX009 (ip), vehicle: saline with Tween-80
[9] = dose: 100.0 mg/kg/injection, schedule: Q04DX002 (ip), vehicle: Klucel (hydroxypropylcellulose) (HPC)
[10] = dose: 200.0 mg/kg/injection, schedule: Q04DX002 (ip), vehicle: Klucel (hydroxypropylcellulose) (HPC)
[11] = dose: 400.0 mg/kg/injection, schedule: Q04DX002 (ip), vehicle: Klucel (hydroxypropylcellulose) (HPC)
[12] = dose: 50.0 mg/kg/injection, schedule: Q01DX001 (ip), vehicle: saline
[13] = dose: 200.0 mg/kg/injection, schedule: Q01DX001 (ip), vehicle: saline
[14] = dose: 400.0 mg/kg/injection, schedule: Q01DX001 (ip), vehicle: saline
[15] = dose: 100.0 mg/kg/injection, schedule: Q04DX003 (ip), vehicle: saline
[16] = dose: 200.0 mg/kg/injection, schedule: Q04DX003 (ip), vehicle: saline

Nc1ncn(C2CC(O)C(CO)O2)c(=O)n1 (stereo unspecified)
T/C (dose: 0.05 mg/kg/injection, schedule: Q01DX005 (ip), vehicle: saline): 155 % of control | T/C (dose: 0.12 mg/kg/injection, schedule: Q01DX005 (ip), vehicle: saline): 154 % of control | T/C (dose: 0.78 mg/kg/injection, schedule: Q01DX005 (ip), vehicle: saline): 94 % of control | T/C (dose: 1.56 mg/kg/injection, schedule: Q01DX005 (ip), vehicle: saline): 98 % of control | T/C (dose: 1.56 mg/kg/injection, schedule: Q01DX009 (ip), vehicle: saline): 114 % of control | T/C (dose: 3.12 mg/kg/injection, schedule: Q01DX005 (ip), vehicle: saline): 100 % of control | T/C (dose: 3.12 mg/kg/injection, schedule: Q01DX009 (ip), vehicle: saline): 100 % of control | T/C (dose: 6.25 mg/kg/injection, schedule: Q01DX009 (ip), vehicle: saline): 86 % of control | T/C [1]: 171 % of control | T/C (dose: 100.0 mg/kg/injection, schedule: Q01DX005 (ip), vehicle: saline): 167 % of control and 174 % of control | T/C (dose: 200.0 mg/kg/injection, schedule: Q01DX005 (ip), vehicle: saline): 174 % of control and 198 % of control | T/C (dose: 300.0 mg/kg/injection, schedule: Q04DX003 (ip), vehicle: saline): 167 % of control

Nc1cc(F)c([N+](=O)[O-])cc1[N+](=O)[O-]
T/C (dose: 8.0 mg/kg/injection, schedule: Q01DX015 (ip), vehicle: carboxymethylcellulose (CMC)): 89 % of control | T/C (dose: 16.0 mg/kg/injection, schedule: Q01DX015 (ip), vehicle: carboxymethylcellulose (CMC)): 91 % of control | T/C (dose: 32.0 mg/kg/injection, schedule: Q01DX015 (ip), vehicle: carboxymethylcellulose (CMC)): 102 % of control

COc1ccc(OC)c(NC(=O)Oc2ccccc2F)c1
T/C (dose: 50.0 mg/kg/injection, schedule: Q01DX009 (ip), vehicle: Klucel (hydroxypropylcellulose) (HPC)): 97 % of control | T/C [2]: 93 % of control | T/C [3]: 90 % of control | T/C [4]: 93 % of control | T/C (dose: 400.0 mg/kg/injection, schedule: Q04DX003 (ip), vehicle: Klucel (hydroxypropylcellulose) (HPC)): 92 % of control

C#CCOCCCC(=C)C
T/C (dose: 25.0 mg/kg/injection, schedule: Q01DX009 (ip), vehicle: saline): 109 % of control | T/C [5]: 93 % of control

Cc1nc2nc(=S)[nH]c(N)c2nc1C
T/C (dose: 16.0 mg/kg/injection, schedule: Q01DX Z (ip), vehicle: methylcellulose (MC)): 86 % of control | T/C (dose: 31.0 mg/kg/injection, schedule: Q01DX Z (ip), vehicle: methylcellulose (MC)): 91 % of control | T/C (dose: 62.0 mg/kg/injection, schedule: Q01DX Z (ip), vehicle: methylcellulose (MC)): 88 % of control | T/C (dose: 125.0 mg/kg/injection, schedule: Q01DX Z (ip), vehicle: methylcellulose (MC)): 95 % of control

CCC/C(=N\NC(=O)c1ccccc1OC)c1ccccc1
T/C [6]: 105 % of control | T/C [7]: 97 % of control | T/C [8]: 105 % of control

COc1cccc(C(=O)c2cc(O)c3c(c2O)CC(C(C)=O)CC3=O)c1C#N (stereo unspecified)
T/C (dose: 50.0 mg/kg/injection, schedule: Q01DX001 (ip), vehicle: saline with Tween-80): 100 % of control | T/C (dose: 100.0 mg/kg/injection, schedule: Q01DX001 (ip), vehicle: saline with Tween-80): 94 % of control | T/C (dose: 200.0 mg/kg/injection, schedule: Q01DX001 (ip), vehicle: saline with Tween-80): 98 % of control

Cc1nc(-c2ccc(N=Cc3ccc(N(CCOS(C)(=O)=O)CCOS(C)(=O)=O)cc3)cc2)cs1
T/C (dose: 2.5 mg/kg/injection, schedule: Q04DX003 (ip), vehicle: Klucel (hydroxypropylcellulose) (HPC)): 106 % of control | T/C (dose: 5.0 mg/kg/injection, schedule: Q04DX003 (ip), vehicle: Klucel (hydroxypropylcellulose) (HPC)): 113 % of control | T/C (dose: 10.0 mg/kg/injection, schedule: Q04DX003 (ip), vehicle: Klucel (hydroxypropylcellulose) (HPC)): 120 % of control | T/C [3]: 118 % of control | T/C [4]: 88 % of control

Cc1ccc(CNc2cc(C)ccn2)cc1
T/C [6]: 96 % of control | T/C [7]: 101 % of control | T/C [8]: 101 % of control

O=C(COc1ccc(Cl)cc1)Nc1ccc[n+](Cc2ccc(S(=O)(=O)F)cc2)c1
T/C [2]: 105 % of control | T/C (dose: 200.0 mg/kg/injection, schedule: Q01DX009 (ip), vehicle: Klucel (hydroxypropylcellulose) (HPC)): 101 % of control

O=NN(CCCl)C(=O)N[C@@H]1CCC[C@@H](O)C1
T/C (dose: 13.0 mg/kg/injection, schedule: Q01DX001 (ip), vehicle: saline with Tween-80): 250 % of control | T/C (dose: 20.0 mg/kg/injection, schedule: Q01DX001 (ip), vehicle: saline with Tween-80): 357 % of control | T/C (dose: 30.0 mg/kg/injection, schedule: Q01DX001 (ip), vehicle: saline with Tween-80): 420 % of control | T/C (dose: 44.0 mg/kg/injection, schedule: Q01DX001 (ip), vehicle: saline with Tween-80): 417 % of control

COc1ccc(C(=O)OCC(Br)CBr)cc1 (stereo unspecified)
T/C (dose: 222.0 mg/kg/injection, schedule: Q01DX Z (ip), vehicle: methylcellulose (MC)): 102 % of control | T/C (dose: 333.0 mg/kg/injection, schedule: Q01DX Z (ip), vehicle: methylcellulose (MC)): 108 % of control | T/C (dose: 500.0 mg/kg/injection, schedule: Q01DX Z (ip), vehicle: methylcellulose (MC)): 103 % of control

O=C(O)CCCCCC(=O)c1ccccc1
T/C [9]: 100 % of control | T/C [10]: 118 % of control | T/C [11]: 107 % of control

C=CCCCCCCCCC(=O)NCc1cccnc1
T/C [7]: 96 % of control | T/C [8]: 94 % of control | T/C (dose: 400.0 mg/kg/injection, schedule: Q01DX009 (ip), vehicle: saline with Tween-80): 102 % of control

CC(=O)C1CC[C@@]2(C)C(CC[C@H]3[C@@H]4CCC[C@H]([C@H](C)O)[C@@]4(C)CC[C@@H]32)C1 (stereo partly specified)
T/C (dose: 100.0 mg/kg/injection, schedule: Q04DX003 (ip), vehicle: steriod suspending solution): 106 % of control | T/C (dose: 200.0 mg/kg/injection, schedule: Q04DX003 (ip), vehicle: steriod suspending solution): 95 % of control | T/C (dose: 400.0 mg/kg/injection, schedule: Q04DX003 (ip), vehicle: steriod suspending solution): 119 % of control

OC1CCCCC1Br (stereo unspecified)
T/C [12]: 96 % of control | T/C [1]: 98 % of control | T/C [13]: 113 % of control | T/C [14]: 102 % of control

c1ccc(Cc2nnc(Cc3ccccc3)nn2)cc1
T/C [9]: 91 % of control | T/C [10]: 102 % of control | T/C [11]: 105 % of control

CC(C)(N)CO
T/C [12]: 104 % of control | T/C [1]: 101 % of control | T/C (dose: 100.0 mg/kg/injection, schedule: Q04DX002 (ip), vehicle: saline): 100 % of control | T/C [15]: 106 % of control | T/C [13]: 104 % of control | T/C (dose: 200.0 mg/kg/injection, schedule: Q04DX002 (ip), vehicle: saline): 110 % of control | T/C [16]: 106 % of control | T/C [14]: 101 % of control | T/C (dose: 400.0 mg/kg/injection, schedule: Q04DX002 (ip), vehicle: saline): 100 % of control | T/C (dose: 400.0 mg/kg/injection, schedule: Q04DX003 (ip), vehicle: saline): 105 % of control

CC(CN)N(C)C (stereo unspecified)
T/C [5]: 89 % of control | T/C (dose: 100.0 mg/kg/injection, schedule: Q01DX009 (ip), vehicle: saline): 95 % of control | T/C [15]: 93 % of control | T/C (dose: 200.0 mg/kg/injection, schedule: Q01DX009 (ip), vehicle: saline): 89 % of control | T/C [16]: 97 % of control

Clc1ccc(N=Cc2ccccc2)cn1
T/C (dose: 50.0 mg/kg/injection, schedule: Q01DX001 (ip), vehicle: carboxymethylcellulose (CMC)): 105 % of control | T/C (dose: 100.0 mg/kg/injection, schedule: Q01DX001 (ip), vehicle: carboxymethylcellulose (CMC)): 88 % of control | T/C (dose: 200.0 mg/kg/injection, schedule: Q01DX001 (ip), vehicle: carboxymethylcellulose (CMC)): 111 % of control | T/C (dose: 400.0 mg/kg/injection, schedule: Q01DX001 (ip), vehicle: carboxymethylcellulose (CMC)): 100 % of control

c1cc(OCCN2CC2)ccn1
T/C (dose: 12.5 mg/kg/injection, schedule: Q01DX001 (ip), vehicle: carboxymethylcellulose (CMC)): 98 % of control | T/C (dose: 25.0 mg/kg/injection, schedule: Q01DX001 (ip), vehicle: carboxymethylcellulose (CMC)): 108 % of control
